The values below come from patent publication US5438052A, “Cephalosporin derivatives” (Hoffmann-La Roche Inc., priority 1991, dated 1995).

In assay [1] the test system is E. coli 25922. The assay is described as follows: Experimental systemic septicaemia in the mouse. Conditions: 96 h. Format: in vivo. The method, boiled down: (§1)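 ED50 in mg/kg s.c. is the Probit-derived dose protecting half the mice, judged on survival 4 days after i.p. challenge (about 5-100× 48 h LD50) in 16-20 g albino mice, 5 per group. Dosing was s.c. in 2% Tween 80 at 1 and 3 h, plus 5 h for P. aeruginosa.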

The subject of assay [2] is Pseudomonas aeruginosa BA. Kind of assay: Experimental systemic septicaemia in the mouse. Format: in vivo. Conditions: sc, 96 h. Summed up: as §1
A further assay has as its system S. aureus Schoch. Kind of assay: Experimental systemic septicaemia in the mouse. Format: in vivo. Conditions: Staphylococcus aureus, sc, 96 h. Summed up:
as §1

The subject of another assay is E. cloacae 908R. Kind of assay: Minimum inhibitory concentration in vitro, agar dilution method. Type of assay: cell-based. Conditions: Enterobacter cloacae. The text has this:
(§2) 1. Minimum Inhibitory Concentration in vitro
(§3) The activities ascertained, minimum inhibitory concentration (MIC) in μg/ml, are compiled in Table 1 hereinafter: […]
For orientation: Agar dilution tests growth on a series of plates holding different concentrations.

The next assay relates to K. pneumoniae 418. The assay is described as above. Format: cell-based. The conditions noted are these: Klebsiella pneumoniae.
Excerpt: as §2, §3

The next assay deals with K. oxytoca 1082. The description is as above. Type of assay: cell-based. The conditions noted are these: Klebsiella oxytoca.
Excerpt: as §2, §3

In a further assay the test system is C. freundii 902. The assay is described as above. Type of assay: cell-based. Conditions: Citrobacter freundii.
Excerpt: as §2, §3

Another assay deals with S. pyogenes 15. Described as above. Type of assay: cell-based. The conditions noted are these: Streptococcus pyogenes.
Excerpt: as §2, §3

The subject of another assay is P. vulgaris 1028. The description is as above. Format: cell-based. Conditions: Proteus vulgaris.
Excerpt: as §2, §3

The next assay concerns P. mirabilis 2117. Described as above. Type of assay: cell-based. The conditions noted are these: Proteus mirabilis.
Excerpt: as §2, §3

For the next assay, the system named is S. marcescens 69438. The description is as above. Format: cell-based. Conditions: Serratia marcescens.
Excerpt: as §2, §3

Another assay relates to S. pneumoniae BA. The description is as above. Format: cell-based. The conditions noted are these: Streptococcus pneumoniae; S. pneumoniae BA, agar dilution; read-out: MIC.
Excerpt: as §2, §3

The test system of another assay is P. aeruginosa 799/WT. The description is as above. Type of assay: cell-based. The conditions noted are these: Pseudomonas aeruginosa.
Excerpt: as §2, §3

For a further assay, the system named is E. cloacae 908SSi. Described as above. Format: cell-based. The conditions noted are these: Enterobacter cloacae.
Excerpt: as §2, §3

The test system of assay [3] is E. coli 25922. The assay is described as above. Type of assay: cell-based. The conditions noted are these: Escherichia coli.
Excerpt: as §2, §3

The next assay has as its system P. aeruginosa BA. The description is as above. Type of assay: cell-based. Conditions: Pseudomonas aeruginosa.
Excerpt: as §2, §3

Another assay deals with P. aeruginosa 799/61. The description is as above. Format: cell-based. Conditions: Pseudomonas aeruginosa.
Excerpt: as §2, §3

A further assay has as its system P. aeruginosa 27853. Described as above. Type of assay: cell-based. Conditions: Pseudomonas aeruginosa.
Excerpt: as §2, §3

The test system of a further assay is S. aureus 6538. Described as above. Type of assay: cell-based. Conditions: Staphylococcus aureus.
Excerpt: as §2, §3

In a further assay the test system is P. aeruginosa MK1184. Described as above. Type of assay: cell-based. Conditions: Pseudomonas aeruginosa.
Excerpt: as §2, §3

In another assay the test system is E. cloacae P99. The assay is described as above. Format: cell-based. Conditions: Enterobacter cloacae.
Excerpt: as §2, §3

The mark [4] stands for this setting: Escherichia coli, sc, E. coli 25922, albino mice, s.c. 1 and 3 hours after infection, survival after 4 days, read-out: ED50.
Where [5] appears, read: P. aeruginosa BA, albino mice, s.c. 1, 3 and 5 hours after infection, survival after 4 days, read-out: ED50.
Where [6] appears, read: S. aureus Schoch, albino mice, s.c. 1 and 3 hours after infection, survival after 4 days, read-out: ED50.
Where [7] appears, read: E. cloacae 908R, agar dilution, read-out: MIC.
The mark [8] stands for this setting: K. pneumoniae 418, agar dilution, read-out: MIC.
Where [9] appears, read: K. oxytoca 1082, agar dilution, read-out: MIC.
Where [10] appears, read: C. freundii 902, agar dilution, read-out: MIC.
Setting [11] is: S. pyogenes 15, agar dilution, read-out: MIC.
[12] abbreviates: P. vulgaris 1028, agar dilution, read-out: MIC.
Where [13] appears, read: P. mirabilis 2117, agar dilution, read-out: MIC.
Where [14] appears, read: S. marcescens 69438, agar dilution, read-out: MIC.
Where [15] appears, read: P. aeruginosa 799/WT, agar dilution, read-out: MIC.
Where [16] appears, read: E. cloacae 908SSi, agar dilution, read-out: MIC.
The mark [17] stands for this setting: E. coli 25922, agar dilution, read-out: MIC.
[18] abbreviates: P. aeruginosa BA, agar dilution, read-out: MIC.
Setting [19] is: P. aeruginosa 799/61, agar dilution, read-out: MIC.
The mark [20] stands for this setting: P. aeruginosa 27853, agar dilution, read-out: MIC.
[21] abbreviates: S. aureus 6538, agar dilution, read-out: MIC.
[22] abbreviates: P. aeruginosa MK1184, agar dilution, read-out: MIC.

The ED50 is the midpoint of the dose-response relation. One may read the MIC as the least concentration at which growth counts as inhibited.

Structures are written as SMILES. Values after ≈ are worked out from the molar mass of the structure shown. Structures can show the parent of a compound that is named as a salt. Where two headings read alike, the source gives them in different places.

With `Cc1cc(SCC2=C(C(=O)O)N3C(=O)[C@@H](NC(=O)/C(=N\OC(C)(C)C(=O)NNC(=O)c4ccc(O)c(O)c4)c4csc(N)n4)[C@H]3SC2)n2nc(CS(=O)(=O)c3ccc(O)c(O)c3)nc2n1` [Example 44], the ED50 in the assay on E. coli 25922 [1] (setting [4]) was less than 0.05 mg/kg; in assay [2] (setting [5]), less than 0.01 mg/kg; with S. aureus Schoch (setting [6]), greater than 12 mg/kg. Moreover, the MIC with E. cloacae 908R (setting [7]) was 1 µg/mL (≈ 1.03 µM); in the assay on K. pneumoniae 418 (setting [8]), less than 0.1 µg/mL; in the assay with K. oxytoca 1082 (setting [9]) it was less than 0.1 µg/mL; with C. freundii 902 (setting [10]), 0.25 µg/mL (≈ 0.258 µM); with S. pyogenes 15 (setting [11]), 8 µg/mL (≈ 8.25 µM); in the assay with P. vulgaris 1028 (setting [12]), 0.25 µg/mL (≈ 0.258 µM). Moreover, the minimal inhibitory concentration (MIC) in the assay with P. mirabilis 2117 (setting [13]) was 0.25 µg/mL (≈ 0.258 µM); in the assay with S. marcescens 69438 (setting [14]), 0.25 µg/mL (≈ 0.258 µM); with S. pneumoniae BA, 1 µg/mL (≈ 1.03 µM); in the assay with P. aeruginosa 799/WT (setting [15]), 0.12 µg/mL (≈ 0.124 µM); in the assay on E. cloacae 908SSi (setting [16]), 8 µg/mL (≈ 8.25 µM); in the assay with E. coli 25922 [3] (setting [17]) it was less than 0.1 µg/mL. The MIC in the assay with P. aeruginosa BA (setting [18]) is less than 0.1 µg/mL; with P. aeruginosa 799/61 (setting [19]), less than 0.1 µg/mL; with P. aeruginosa 27853 (setting [20]) it was 0.5 µg/mL (≈ 0.515 µM); with S. aureus 6538 (setting [21]) it was 32 µg/mL (≈ 33 µM); with P. aeruginosa MK1184 (setting [22]), 0.12 µg/mL (≈ 0.124 µM).
Consider `Cc1cc(SCC2=C(C(=O)O)N3C(=O)[C@@H](NC(=O)/C(=N\OCc4ccc(O)c(O)c4F)c4csc(N)n4)[C@H]3SC2)n2nc(CNS(=O)(=O)c3ccc(O)c(O)c3)nc2n1` [Example 5, 7-[(Z)-2-(2-amino-4-thiazolyl)-2-[[(2-fluoro-3,4-dihydroxybenzyl)oxy]imino]acetamido]-3-[[[2-[(3,4-dihydroxybenzenesulphonamido)methyl]-5-methyl-s-triazolo[1,5-a]pyrimidin-7-yl]thio]methyl]-8-oxo-5-thia-1-azabicyclo[4.2.0]oct-2-ene-2-carboxylic acid sodium salt (1:1)], for which the ED50 in the assay with E. coli 25922 [1] (setting [4]) was less than 0.1 mg/kg; in assay [2] (setting [5]), 0.034 mg/kg; with S. aureus Schoch (setting [6]), 3.1 mg/kg. Also, the MIC is 0.25 µg/mL with E. cloacae 908R (setting [7]); less than 0.1 µg/mL in the assay on K. pneumoniae 418 (setting [8]); 0.25 µg/mL in the assay with K. oxytoca 1082 (setting [9]); less than 0.1 µg/mL in the assay on C. freundii 902 (setting [10]); 0.5 µg/mL in the assay on S. pyogenes 15 (setting [11]); 0.5 µg/mL in the assay with P. vulgaris 1028 (setting [12]). Besides, the MIC with P. mirabilis 2117 (setting [13]) is 0.25 µg/mL; in the assay with S. marcescens 69438 (setting [14]), less than 0.1 µg/mL; with P. aeruginosa 799/WT (setting [15]) it was less than 0.1 µg/mL; with E. cloacae 908SSi (setting [16]) it was 1 µg/mL; in the assay on E. coli 25922 [3] (setting [17]), less than 0.1 µg/mL; in the assay with P. aeruginosa BA (setting [18]) it was 0.12 µg/mL. Also, the MIC with P. aeruginosa 799/61 (setting [19]) is less than 0.1 µg/mL; in the assay with P. aeruginosa 27853 (setting [20]) it was 0.12 µg/mL; in the assay on S. aureus 6538 (setting [21]), 4 µg/mL; with E. cloacae P99, 4 µg/mL; in the assay on P. aeruginosa MK1184 (setting [22]), less than 0.1 µg/mL.
As to `Cc1cc(SCC2=C(C(=O)[O-])N3C(=O)[C@@H](NC(=O)/C(=N\OCc4ccc(O)c(O)c4)c4csc(N)n4)[C@H]3SC2)n2nc(COC(=O)c3ccc(O)c(O)c3)nc2n1.[Na+]` [Example 8, (6R,7R)-7-[(Z)-2-(2-amino-4-thiazolyl)-2-[[(3,4-dihydroxybenzyl)oxy]imino]acetamido]-3-[[[2-[[(3,4-dihydroxybenzoyl)oxy]methyl]-5-methyl-s-triazolo[1,5-a]pyrimidin-7-yl]thio]methyl]-8-oxo-5-thia-1-azabicyclo[4.2.0]oct-2-ene-2-carboxylic acid sodium salt (1:1)], the ED50 was less than 0.1 mg/kg with E. coli 25922 [1] (Escherichia coli, 25922, sc); 0.45 mg/kg in assay [2]; 2 mg/kg with S. aureus Schoch. Also, the MIC against E. cloacae 908R (908R) was 0.25 µg/mL; against K. pneumoniae 418 (418) it was less than 0.1 µg/mL; in the assay on K. oxytoca 1082 (1082) it was less than 0.1 µg/mL; in the assay with C. freundii 902 (902) it was less than 0.1 µg/mL; against S. pyogenes 15 (15), 1 µg/mL; in the assay on P. vulgaris 1028 (1028), less than 0.1 µg/mL. In addition, the MIC in the assay on P. mirabilis 2117 (2117) is less than 0.1 µg/mL; in the assay on S. marcescens 69438 (69438), 0.12 µg/mL; with P. aeruginosa 799/WT (799/WT) it was less than 0.1 µg/mL; in the assay on E. cloacae 908SSi (908SSI) it was 2 µg/mL; against E. coli 25922 [3] (25922) it was less than 0.1 µg/mL; with P. aeruginosa BA it was less than 0.1 µg/mL. The MIC against P. aeruginosa 799/61 (799/61) is less than 0.1 µg/mL; against P. aeruginosa 27853 (27853), 0.12 µg/mL; against S. aureus 6538 (6538), 4 µg/mL; against E. cloacae P99 it was 8 µg/mL; against P. aeruginosa MK1184 (MK1184), less than 0.1 µg/mL.
